Measured values from patent US6123959A, “Aqueous composition comprising active ingredients for the de-pigmentation of the skin” (Univera Pharmaceuticals, Inc., priority 1998, dated 2000).
Where two headings read alike, the source gives them in different places. Each block holds one molecule with its values, some of them ahead of it.

What was measured:
tyrosinase [1] = experiment: in vitro tyrosinase inhibition assay (L-Dopa conversion to dopachrome, absorption at 475 nm); type: biochemical; conditions: pH 6.8
Method: An in vitro tyrosinase inhibition assay was carried out using a modification of the procedure described by Pomerantz […] J. Biol. Chem. 238:2351-2357. According to this method, the conversion of L-Dopa, a substrate of tyrosinase, into dopaquinone and then dopachrome is followed by monitoring absorption at 475 nm in a spectrophotometer. As the colored substance dopachrome absorbs light having a wavelength of 475 nm, a quantitative measurement of the time-related conversion and thus the activity of tyrosinase can be made.
Each sample was prepared in a 50 mM potassium phosphate buffer which had been adjusted to pH 6.8, and stabilized by the addition of 10% DMSO. Tyrosinase (48 u, "u" represents the activity units of an enzyme, measured in mM substratum conversion per minute) was added to each sample. A double assessment was carried out for each inhibitor, using two different starting concentrations of L-Dopa: 0.4 mM and 0.2 mM. Controls were also run using the same concentrations of uninhibited tyrosinase to serve as the neutral value. In the control samples the volume of inhibitor was replaced with 50 mM potassium phosphate buffer. The time-related difference in absorption, and thus the conversion of L-Dopa, was followed for a period of two minutes.
The conversion kinetics of the tyrosinase was measured upon addition of the following concentrations of inhibitor: arbutin (0.9 mM); aloesin (0.0192 mM; 0.0385 mM and 0.0769 mM) and with the respective combination of both of the inhibitors. Enzyme inhibition was determined from the difference between the inhibited and the uninhibited kinetics. It is worth noting that the compositions examined in this example contain no liposomes, as the penetration ability and bio-availability are of no significance in an in vitro test. The purpose of these in vitro studies was to determine the efficacy of the inhibitors (arbutin and aloesin) individually and combinations thereof.

skin = conditions: cited from earlier work; for quantity required to achieve a similar effect, compared to hydroquinone: relative to quantity of hydroquinone used
tyrosinase [2] = conditions: cited from earlier work
tyrosinase [3] = conditions: cited from earlier work; for mode of tyrosinase inhibition: Lineweaver Burk diagram
tyrosinase [4] = experiment: inhibitory effect on tyrosinase of octylaloesin compared to aloesin; type: biochemical
synthesis of melanin = conditions: cited from earlier work

% Inhibition Tyrosinase (tyrosinase [1]; arbutin 0.9 mM): 29%
Compound: OC[C@H]1O[C@@H](Oc2ccc(O)cc2)[C@H](O)[C@@H](O)[C@@H]1O [arbutin]
quantity required to achieve a similar effect, compared to hydroquinone (skin): over 100 times
mode of tyrosinase inhibition (tyrosinase [2]): competitive inhibitors

Compound: Oc1ccc(O)cc1 [hydroquinone]
side effects (skin; applied over long periods of time): serious side effects
photosensitivity of the skin (skin; exposed to UV light): increased photosensitivity
de-pigmentation (persistence) (skin; in vivo): permanent de-pigmentation

% Inhibition Tyrosinase (tyrosinase [1]; aloesin 0.0192 mM): 20%
% Inhibition Tyrosinase (tyrosinase [1]; aloesin 0.0385 mM): 32%
% Inhibition Tyrosinase (tyrosinase [1]; aloesin 0.0769 mM): 46%
Compound: CC(=O)Cc1cc(=O)c2c(C)cc(O)c([C@@H]3O[C@H](CO)[C@@H](O)[C@H](O)[C@H]3O)c2o1 [aloesin]
mode of tyrosinase inhibition (tyrosinase [3]): non-competitive inhibitors
inhibition of tyrosinase (tyrosinase [3]): effective inhibitors of tyrosinase

Compound: CCCCCCCCOc1cc(C)c2c(=O)cc(CC(C)=O)oc2c1[C@@H]1O[C@H](CO)[C@@H](O)[C@H](O)[C@H]1O [octylaloesin]
inhibitory effect on tyrosinase compared to aloesin (tyrosinase [4]): significantly higher inhibitory effect on tyrosinase

Compound: O=C1O[C@H]([C@@H](O)CO)C(O)=C1O [ascorbic acid]
quantity required to achieve a similar effect, compared to hydroquinone (skin): 17 times
mode of tyrosinase inhibition (tyrosinase [2]): competitive inhibitors

Compound: COc1cc(/C=C/C(=O)O[C@@H]2[C@@H](O)[C@H](O)[C@@H](CO)O[C@H]2c2c(O)cc(C)c3c(=O)cc(CC(C)=O)oc23)ccc1O [2"-O-feruloylaloesin]
mode of tyrosinase inhibition (tyrosinase [3]): non-competitive inhibitors
inhibition of tyrosinase (tyrosinase [3]): effective inhibitors of tyrosinase

Compound: CC/C=C\C/C=C\C/C=C\CCCCCCCC(=O)O [linolenic acid]
inhibition of the synthesis of melanin (synthesis of melanin): inhibit the synthesis of melanin

Compound: O=c1cc(CO)occ1O [kojic acid]
mode of tyrosinase inhibition (tyrosinase [2]): competitive inhibitors
